Data as given in patent US20100285583A1, “COMPOUNDS AND METHODS FOR INHIBITING PLATELET AGGREGATION” (priority 2009, published 2010).
One block for each compound: values may come before it.

Tests used:
N-PTB domain = molecular target: T1, N-PTB domain (Homo sapiens, UniProt P98082, A82R); assay: Protein-lipid overlay competition assay; type: binding; details: pre-incubation with 10-fold excess of lipid
T1 construct: The N-PTB domain (residues 1-241) cDNA construct was cloned into a pGEX6P1 vector; made in house; host or cells: E. coli Rosetta
T1 sequence (P98082 1-241 A82R): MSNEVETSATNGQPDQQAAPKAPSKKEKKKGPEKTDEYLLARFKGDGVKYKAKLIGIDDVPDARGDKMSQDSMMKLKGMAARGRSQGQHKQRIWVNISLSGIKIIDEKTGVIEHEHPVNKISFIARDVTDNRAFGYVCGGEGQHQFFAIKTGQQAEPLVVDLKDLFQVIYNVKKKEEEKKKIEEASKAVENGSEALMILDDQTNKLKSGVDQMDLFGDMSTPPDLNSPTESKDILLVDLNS
Procedure: Membrane strips (SphingoStrips™) spotted with 100 pmol of sphingolipids were purchased from Echelon Research Laboratories. Membrane strips were incubated with 0.1 μg/ml of the Dab2 PTB domain or its mutants in 20 mM Tris-HCl (pH 8.0), 150 mM NaCl, 0.1% Tween-20 and 3% fatty acid-free bovine serum albumin overnight at 4° C. Following four washes with the same buffer, proteins bound to the membrane strips were probed with rabbit anti-GST antibody (Santa Cruz Biotech). Donkey anti rabbit-horse radish peroxidase (HRP) antibody was obtained from GE Healthcare. Detection was carried out using ECL reagent (Pierce). Also, lipid strips were prepared by spotting 1 μl of either sulfatides or PtdIns(4,5)P2 dissolved in chloroform:methanol:water (1:2:0.8 and 65:35:8, respectively) onto Hybond-C extra membranes (GE Healthcare) and protein binding was monitored as described above. Bound protein was quantified using the AlphaImager program and binding was calculated as a percentage of GST-PTB binding to 100 pmoles of spotted lipid.
We next asked whether sulfatides and PtdIns(4,5)P2 compete with each other for binding to the N-PTB domain using a protein-lipid overlay competition assay. […] This observation was further confirmed by competing sulfatides and PtdIns(4,5)P2 for N-PTB domain binding using SPR. […]

Human washed platelets = assay: Platelet immunofluorescence analysis (subcellular localization); type: cell-based; details: activated platelets in presence of inhibitor
Procedure: Washed platelets (50 μl of […] in Tyrode's albumin buffer) were incubated with 1.9 μM of PTB domain constructs for 5 min at room temperature in the presence of 0.25 g/L fibrinogen. Aggregation was initiated by the addition of 10 μM TRAP. Reactions were incubated at room temperature unless otherwise indicated. Platelets were fixed with 0.4 mL of 3.7% formaldehyde in Phosphate Buffered Saline (PBS) for 30 min. Next, 20% goat serum was added to the fixed platelets, and 60% of the total fixed reaction was centrifuged using a Shandon cytospinner onto a Shandon coated cytoslide to achieve the appropriate platelet density for analysis. Slides were then washed twice with PBS for 10 min. Platelets were permeabilized with 0.5% Triton X-100 in PBS for 10 min and then blocked with 20% goat serum in PBS with 0.1% Triton X-100 for 1 h at room temperature. Platelets were washed 3 times with PBS with 0.1% Triton for 10 minutes and further incubated overnight with the anti-Dab2 antibody 1:100 (anti-p96; BD Transduction) in PBS with 0.1% Triton X-100 and 10% goat serum at 4° C. in a humidity chamber. Platelets were then washed and incubated with the anti-mouse Cy-3 conjugated goat antibody 1:250 and Alexa488 conjugated phalloidin (25 μg/mL) in PBS with 0.1% Triton X-100 and 10% goat serum for 2 h. Platelets were washed again and observed on an Olympus IX71 microscope using the Softworx Applied Precision software.
Mean pixel intensity was determined for 400 platelets from four fields each for 3 min and 10 min of treatments by manually drawing circles around individual platelets using the 2D Polygon tool in the Softworx software. For each time point, a threshold of significant mean pixel intensity was defined for the experiment. The percentage of countable platelets to exceed the threshold was calculated for each field and the average of four fields was computed with standard deviation. The ratio of internalization:binding is the quotient of these averages for a treatment.

[1] = test system: T2, Dab2 N-terminal phosphotyrosine binding domain (N-PTB, residues 1-241 of human Disabled-2), wild type
T2 sequence: T1 sequence (P98082 1-241 A82R)

competition with sulfatide for PTB binding (N-PTB domain): did not compete
Compound: CCCCCCCCCCCCCCCC(=O)OC[C@H](COP(=O)(O)O[C@@H]1[C@H](O)[C@H](OP(=O)(O)O)[C@@H](O)[C@H](O)[C@H]1O)OC(=O)CCCCCCCCCCCCCCC [PtdIns(3)P, phosphatidylinositol 3-phosphate]

reduction of sulfatide binding of N-PTB domain (N-PTB domain): at least 60%
Compound: phosphatidylinositol 4,5-bisphosphate [PtdIns(4,5)P2]

Compound: CN(C)CCCN1c2ccccc2Sc2ccc(Cl)cc21 [chlorpromazine, reference compound]
effect on N-PTB domain internalization (Human washed platelets): inhibited

Compound: thrombin
thrombin proteolysis of the N-PTB domain (FIG. 3B) [1]: thrombin cleaved the N-PTB domain leaving a ˜25 kW protease-resistant product

Compound: C=C1[C@@H](C)[C@H]2[C@H](Cc3ccccc3)NC(=O)[C@]23[C@H](OC(C)=O)/C=C/[C@@](C)(O)C(=O)[C@@H](C)C/C=C/[C@H]3[C@@H]1O [cytochalasin D, reference compound]
effect on N-PTB domain internalization (Human washed platelets): completely blocked N-PTB domain internalization
